Assay results published in US20240148821A1, “PHARMACEUTICAL USE OF CYCLIC PEPTIDE COMPOUND” (CHUGAI SEIYAKU KABUSHIKI KAISHA, priority 2021, published 2024).
Numbered stars: 1 amine (or outer) side, 2 acyl side, 3 side chain; on linkers, the order of the positions; unused ones are H or OH. Bridge positions count the residues as written; N and C are the ends. Square brackets hold non-standard residues; d marks the D form. Peptide text beside a SMILES is read from it. * marks the point of attachment. hPhe(3,5-F2-4-CF3) = N[C@@H](CCc1cc(F)c(C(F)(F)F)c(F)c1)C(=O)O; hPhe(3-Cl-4-CF3) = N[C@@H](CCc1ccc(C(F)(F)F)c(Cl)c1)C(=O)O; ACHC(1R,2R) = O=C([C@@H]1CCCC[C@H]1N[*:1])[*:2]; NMePhe(4-CN) = CN[C@@H](Cc1ccc(C#N)cc1)C(=O)O; NEtPhe(4-Me) = CCN[C@@H](Cc1ccc(C)cc1)C(=O)O; NMePhe(4-Cl) = CN[C@@H](Cc1ccc(Cl)cc1)C(=O)O; NMePhe(4-Me) = CN[C@@H](Cc1ccc(C)cc1)C(=O)O; NMePhe(4-F) = CN[C@@H](Cc1ccc(F)cc1)C(=O)O; NMeGly(cPent) = CN[C@H](C(=O)O)C1CCCC1; Phe(3-I) = N[C@@H](Cc1cccc(I)c1)C(=O)O; Phe(2-F) = N[C@@H](Cc1ccccc1F)C(=O)O; NMe3Pal = CN[C@@H](Cc1cccnc1)C(=O)O; NMeCha = CN[C@@H](CC1CCCCC1)C(=O)O; NMeGly(cPr) = CN[C@H](C(=O)O)C1CC1; NMehLeu = CN[C@@H](CCC(C)C)C(=O)O; NMeChg = CN[C@H](C(=O)O)C1CCCCC1; NMeI = CC[C@H](C)[C@H](NC)C(=O)O; NMeD = CN[C@@H](CC(=O)O)C(=O)O; NMeL = CN[C@@H](CC(C)C)C(=O)O; NMePra = C#CC[C@H](NC)C(=O)O; NMeV = CN[C@H](C(=O)O)C(C)C; d(β3hA) = C[C@@H](N)CC(=O)O; NMeS = CN[C@@H](CO)C(=O)O; dPip = O=C(O)[C@H]1CCCCN1; NMeA = CN[C@@H](C)C(=O)O; NMeAib = CNC(C)(C)C(=O)O; Piperidide = C1CCN(*)CC1; dNMeA = CN[C@H](C)C(=O)O; Ac5c = NC1(C(=O)O)CCCC1; Aze = O=C(O)[C@@H]1CCN1; Cyclobutyl = C1CC(*)C1; Sar = CNCC(=O)O

Tested on: Human pancreatic cancer cell line AsPC-1 (G12D mutation Kras)
Test: AsPC-1 cell growth inhibition (AsPC-1 CGI)
Type: cell-based
Details: read-out: AsPC-1 cell growth inhibition, 50% growth inhibitory concentration (IC50 value); 96 hours, CellTiter-Glo, values classified in ranges
Procedure: Test compounds were serially dilated with dimethyl sulfoxide, and 200 nL was then dispensed to a U-bottom 96-well plate using Labcyte Echo. […] The cell suspension was dispensed to a. plate containing a test compound at 100 μL per well and incubated at 37° C. in a 5% carbon dioxide gas incubator. 96 hours later, 80 μL of CellTiter-Glo (Promega) was added to each well and fluorescence was measured.

| SMILES | IC50 |
| --- | --- |
| CC[C@H](C)[C@@H]1NC(=O)[C@H](C)N(C)C(=O)C[C@@H](C)NC(=O)[C@H](C2CCCC2)N(C)C(=O)C2(CCCC2)NC(=O)[C@@H]2CCCN2C(=O)[C@H](CCc2ccc(C(F)(F)F)c(Cl)c2)NC(=O)CN(C)C(=O)[C@H](Cc2ccc(Cl)cc2)N(C)C(=O)[C@@H]2CCCN2C(=O)CN(C)C1=O [Compound 549] (cyclo([Ac5c][NMeGly(cPent)][d(β3hA)][NMeA]I[Sar]P[NMePhe(4-Cl)][Sar][hPhe(3-Cl-4-CF3)]P)) | > 500 nM |
| CC[C@H](C)[C@@H]1NC(=O)[C@H](C)N(C)C(=O)C[C@@H](C(=O)N2CCCCC2)N(C)C(=O)[C@H](C(C)C)N(C)C(=O)C2(CCCC2)NC(=O)[C@@H]2CCCN2C(=O)[C@H](CCc2ccc(C(F)(F)F)c(Cl)c2)NC(=O)[C@H]2CCCCN2C(=O)[C@H](CC2CCCCC2)N(C)C(=O)[C@@H]2CCN2C(=O)CN(C)C1=O [Compound 553] ([NMeA]I[Sar][Aze][NMeCha][dPip][hPhe(3-Cl-4-CF3)]P[Ac5c][NMeV][NMeD]-Piperidide; lactam N-11) | > 500 nM |
| C#CC[C@H]1C(=O)N(C)CC(=O)N[C@@H](CCc2ccc(C(F)(F)F)c(Cl)c2)C(=O)N2CCC[C@H]2C(=O)NC2(CCCC2)C(=O)N(C)[C@@H](C2CCCCC2)C(=O)N(C)[C@H](C(=O)N2CCCCC2)CC(=O)N(C)[C@@H](CC(C)C)C(=O)N[C@@H]([C@@H](C)CC)C(=O)N(C)CC(=O)N(C)CC(=O)N1C [Compound 554] ([NMeL]I[Sar][Sar][NMePra][Sar][hPhe(3-Cl-4-CF3)]P[Ac5c][NMeChg][NMeD]-Piperidide; lactam N-11) | > 500 nM |
| CC[C@H](C)[C@@H]1NC(=O)[C@H](CC(C)C)N(C)C(=O)C[C@@H](C(=O)N2CCCCC2)N(C)C(=O)[C@H](CC(C)C)NC(=O)C(C)(C)N(C)C(=O)[C@H](Cc2ccccc2F)NC(=O)[C@H](Cc2cccc(I)c2)NC(=O)CN(C)C(=O)[C@H](Cc2ccc(C)cc2)N(C)C(=O)CN(C)C(=O)CN(C)C1=O [Compound 556] ([NMeL]I[Sar][Sar][NMePhe(4-Me)][Sar][Phe(3-I)][Phe(2-F)][NMeAib]L[NMeD]-Piperidide; lactam N-11) | > 500 nM |
| CC[C@H](C)[C@@H]1NC(=O)[C@H](CC(C)C)N(C)C(=O)C[C@@H](C(=O)N(C)C)N(C)C(=O)[C@H]([C@@H](C)CC)N(C)C(=O)[C@H](C)NC(=O)[C@H](Cc2cccnc2)N(C)C(=O)[C@H](CCc2ccc(C(F)(F)F)c(Cl)c2)NC(=O)CN(C)C(=O)[C@H](Cc2ccc(C)cc2)N(C)C(=O)[C@@H]2CCN2C(=O)[C@H](C)N(C)C1=O [Compound 557] ([NMeL]I[NMeA][Aze][NMePhe(4-Me)][Sar][hPhe(3-Cl-4-CF3)][NMe3Pal]A[NMeI][NMeD]-NMe2; lactam N-11) | > 500 nM |
| CC[C@H](C)[C@@H]1NC(=O)[C@H](CC(C)C)N(C)C(=O)C[C@@H](C)NC(=O)[C@H](C(C)C)N(C)C(=O)C2(CCCC2)NC(=O)[C@@H]2CCCN2C(=O)[C@H](CCc2ccc(C(F)(F)F)c(Cl)c2)NC(=O)CN(C)C(=O)[C@H](Cc2ccc(C#N)cc2)N(C)C(=O)CN(C)C(=O)CN(C)C1=O [Compound 564] (cyclo([Ac5c][NMeV][d(β3hA)][NMeL]I[Sar][Sar][NMePhe(4-CN)][Sar][hPhe(3-Cl-4-CF3)]P)) | > 500 nM |
| CC[C@H](C)[C@@H]1NC(=O)[C@H](C2CC2)N(C)C(=O)C[C@@H](C)NC(=O)[C@H](C(C)C)N(C)C(=O)C2(CCCC2)NC(=O)[C@@H]2CCCN2C(=O)[C@H](CCc2ccc(C(F)(F)F)c(Cl)c2)NC(=O)CN(C)C(=O)[C@H](CC2CCCCC2)N(C)C(=O)[C@@H]2CCN2C(=O)[C@H](C)N(C)C1=O [Compound 565] (cyclo([Ac5c][NMeV][d(β3hA)][NMeGly(cPr)]I[NMeA][Aze][NMeCha][Sar][hPhe(3-Cl-4-CF3)]P)) | > 500 nM |
| CC[C@H](C)[C@@H]1NC(=O)[C@H](CC(C)C)NC(=O)[C@@H]2CCCC[C@H]2NC(=O)[C@H](C(C)C)N(C)C(=O)C2(CCCC2)NC(=O)[C@@H]2CCCN2C(=O)[C@H](CCc2ccc(C(F)(F)F)c(Cl)c2)NC(=O)CN(C)C(=O)[C@H](CC2CCCCC2)N(C)C(=O)CN(C)C(=O)CN(C)C1=O [Compound 569] (cyclo([Ac5c][NMeV][ACHC(1R,2R)]LI[Sar][Sar][NMeCha][Sar][hPhe(3-Cl-4-CF3)]P)) | > 500 nM |
| CC[C@H](C)[C@@H]1NC(=O)[C@H](C2CCCC2)N(C)C(=O)C[C@@H](C)NC(=O)[C@H](C(C)C)N(C)C(=O)C2(CCCC2)NC(=O)[C@@H]2CCCN2C(=O)[C@H](CCc2ccc(C(F)(F)F)c(Cl)c2)NC(=O)CN(C)C(=O)[C@H](CC2CCCCC2)N(C)C(=O)[C@@H]2CCN2C(=O)[C@H](C)N(C)C1=O [Compound 570] (cyclo([Ac5c][NMeV][d(β3hA)][NMeGly(cPent)]I[NMeA][Aze][NMeCha][Sar][hPhe(3-Cl-4-CF3)]P)) | > 500 nM |
| CC[C@H](C)[C@@H]1NC(=O)[C@H](CC(C)C)N(C)C(=O)C[C@@H](C(=O)N(C)C)N(C)C(=O)[C@H]([C@@H](C)CC)N(C)C(=O)C2(CCCC2)NC(=O)[C@@H]2CCCN2C(=O)[C@H](CCc2cc(F)c(C(F)(F)F)c(F)c2)NC(=O)CN(C)C(=O)[C@H](Cc2ccc(C)cc2)N(CC)C(=O)[C@@H]2CCN2C(=O)[C@H](C)N(C)C1=O [Compound 571] ([NMeL]I[NMeA][Aze][NEtPhe(4-Me)][Sar][hPhe(3,5-F2-4-CF3)]P[Ac5c][NMeI][NMeD]-NMe2; lactam N-11) | ≤ 20 nM |
| CC[C@H](C)[C@@H]1NC(=O)[C@H](CC(C)C)N(C)C(=O)C[C@@H](C(=O)N2CCCCC2)N(C)C(=O)[C@H](CC2CCCCC2)N(C)C(=O)C2(CCCC2)NC(=O)[C@@H]2CCCN2C(=O)[C@H](CCc2ccc(C(F)(F)F)c(Cl)c2)NC(=O)CN(C)C(=O)[C@H](CC2CCCCC2)N(C)C(=O)CN(C)C(=O)CN(C)C1=O [Compound 577] ([NMeL]I[Sar][Sar][NMeCha][Sar][hPhe(3-Cl-4-CF3)]P[Ac5c][NMeCha][NMeD]-Piperidide; lactam N-11) | > 500 nM |
| CC[C@H](C)[C@@H]1NC(=O)[C@H](C)N(C)C(=O)C[C@@H](C)NC(=O)[C@H](C2CCCC2)N(C)C(=O)C2(CCCC2)NC(=O)[C@@H]2CCCN2C(=O)[C@H](CCc2ccc(C(F)(F)F)c(Cl)c2)NC(=O)[C@@H](C)N(C)C(=O)[C@H](Cc2ccc(F)cc2)N(C)C(=O)[C@@H]2CCN2C(=O)[C@H](C)N(C)C1=O [Compound 584] (cyclo([Ac5c][NMeGly(cPent)][d(β3hA)][NMeA]I[NMeA][Aze][NMePhe(4-F)][dNMeA][hPhe(3-Cl-4-CF3)]P)) | > 500 nM |
| CC[C@H](C)[C@@H]1NC(=O)[C@H](CC(C)C)N(C)C(=O)C[C@@H](C(=O)N2CCCCC2)N(C)C(=O)[C@H](COC2CCC2)N(C)C(=O)C2(CCCC2)NC(=O)[C@@H]2CCCN2C(=O)[C@H](CCc2ccc(C(F)(F)F)c(Cl)c2)NC(=O)CN(C)C(=O)[C@H](CC2CCCCC2)N(C)C(=O)CN(C)C(=O)CN(C)C1=O [Compound 585] ([NMeL]I[Sar][Sar][NMeCha][Sar][hPhe(3-Cl-4-CF3)]P[Ac5c][NMeS](Cyclobutyl)[NMeD]-Piperidide; lactam N-11) | > 500 nM |
| CC[C@H](C)[C@@H]1NC(=O)[C@H](CC(C)C)N(C)C(=O)C[C@@H](C)NC(=O)[C@H](CCC(C)C)N(C)C(=O)C2(CCCC2)NC(=O)[C@@H]2CCCN2C(=O)[C@H](CCc2ccc(C(F)(F)F)c(Cl)c2)NC(=O)CN(C)C(=O)[C@H](CC2CCCCC2)N(C)C(=O)CN(C)C(=O)CN(C)C1=O [Compound 586] (cyclo([Ac5c][NMehLeu][d(β3hA)][NMeL]I[Sar][Sar][NMeCha][Sar][hPhe(3-Cl-4-CF3)]P)) | > 500 nM |
